From paper PMC6278399, “Synthesis and Anticancer Activity Evaluation of Hydrolyzed Derivatives of Panaxnotoginseng Saponins” (Molecules, 2018)

Assays:
[1] = MTT cytotoxicity assay, IOSE144 normal cells; assay type: cell-based, human; conditions: human
Source text: (§1) In the study, five cancer cell lines (human colon cancer cells (HT-29), gastric cancer cells (BGC-823), cervical cancer cells (Hela), human breast cancer cells (MCF-7), and human lung cancer cells A549)), and two normal cell lines (human gastric epithelial cells (GES-1) and human ovarian epithelial cells (IOSE144)) were used for the evaluation of biological activity. IOSE144 cells were donated by Professor Piao Huri of Yanbian University, all other cells were purchased from the American Type Culture Collection (ATCC, Manassas, VA, USA). Cells were cultured in Dulbecco’s Modified Eagle’s Medium (DMEM), supplemented with 10% heat-inactivated fetal bovine serum (FBS), 1% 100 μg/mL penicillin and 100 μg/mL streptomycin in a humidified atmosphere containing 5% CO2 at 37 °C. Cell viability was measured using the MTT assay. Cells were seeded in 96 well microtiter plates in a volume of 100 μL medium. All compounds tested were dissolved and further diluted in DMSO. After overnight incubation, cells were treated with different test concentrations or carrier solvents alone in a final volume of 100 μL with five replicates each. […] Cells were treated with compound (80, 40, 20, 10, 5 μM) for 48 h. Then, 10 μL of MTT (5 mg/mL) was added to each well and the cells were incubated at 37 °C in the dark for 4 h. Supernatants were removed and formazan crystals were dissolved in DMSO (100 μL/well). The solution was agitated for 10 min, and the absorbance was measured at 490 nm using microplate reader (imark, BIO-RAD, Hercules, CA, USA) to calculate the 50% inhibitory concentration (IC50). Ginsenoside-Rg3, panaxadiol sapogenin (PD), AD-2 (25-OH-PPD) and AD-1 (25-OCH3-PPD) were used as standard reference compounds.

[2] = test system: cervical cancer cells (Hela); experiment: MTT cytotoxicity assay, Hela; assay type: cell-based, human; conditions: 48 h
Source text: as §1

[3] = test system: human lung cancer cells A549; experiment: MTT cytotoxicity assay, A549; assay type: cell-based; conditions: 48 h
Source text: as §1

[4] = test system: human colon cancer cells (HT-29); experiment: MTT cytotoxicity assay, HT-29; assay type: cell-based; conditions: HT-29, MTT, 48 h
Source text: as §1

[5] = MTT cytotoxicity assay, GES-1 normal cells; assay type: cell-based, human; conditions: human
Source text: as §1

[6] = set-up: method as in earlier work; conditions: stronger than ginsenoside-Rg3; cited from earlier work
[7] = test system: gastric cancer cells (BGC-823); experiment: MTT cytotoxicity assay, BGC-823; assay type: cell-based, human; conditions: BGC-823, MTT, 48 h
Source text: as §1

[8] = test system: human breast cancer cells (MCF-7); experiment: MTT cytotoxicity assay, MCF-7; assay type: cell-based; conditions: MCF-7, MTT, 48 h
Source text: as §1

[9] = test system: IOSE144 cells; experiment: Cell cycle distribution assay, IOSE144; assay type: cell-based, human; conditions: IOSE144, 24 h; control 1.17%
[10] = test system: five cancer cell lines (HT-29, BGC-823, Hela, MCF-7, A549); experiment: Cytotoxic activity on five cancer cell lines (overall statement); assay type: cell-based, human; conditions: MTT
Source text: as §1

[11] = test system: MCF-7 cells; experiment: Cell cycle distribution assay, MCF-7; assay type: cell-based, human; conditions: MCF-7, 30 μM, 24 h; controls 0.73% (3b) and 1.69% (AD-1)
Method: MCF-7 cells treated with 30 μM of compound 3b were incubated for 24 h in CO2 incubator. AD-1 was tested as a positive control, and the experimental concentration of AD-1 was 30 μM. Cells were trypsinized, harvested, washed with PBS, and fixed with 75% ethanol overnight at −20 °C. Next, fixed cells were washed with PBS and stained for 4 h in the dark with a PI solution consisting of 50 μg/mL PI, 50 μg/mL RNase, 0.1% sodium citrate and 0.1% Triton X-100 (pH 8.0). Cell cycle distribution was determined using FACScan (Becton Dickinson, Franklin Lakes, NJ, USA).

[12] = test system: human ovarian epithelial cells (IOSE144); experiment: MTT cytotoxicity assay, IOSE144 normal cells; assay type: cell-based; conditions: IOSE144 normal cells, MTT, 48 h
Source text: as §1

[13] = test system: human gastric epithelial cells (GES-1); experiment: MTT cytotoxicity assay, GES-1 normal cells; assay type: cell-based; conditions: GES-1 normal cells, MTT, 48 h
Source text: as §1

[14] = test system: MCF-7 cells; experiment: Wound healing assay; assay type: cell-based, human; conditions: MCF-7, 30 μM, 24 h, serum-free
Method: MCF-7 cells were seeded in 10-cm dishes at a concentration of 1 × 10^5 cells/ mL and grown overnight. Then, a wound was created in the monolayer of cells by scratching the monolayer with a sharp tip followed by another 24 h of incubation in the presence of 30 μM of compound 3b or 0.1% DMSO under serum-free conditions, 30 μM of AD-1 as a positive control. The gap created was measured under a microscope to provide an indication of the wound healing capability of the cells.

[15] = IOSE144 ovarian epithelial cells (normal cell line), IOSE144 normal cells, MTT, 48 h, read-out: IC50
[16] = GES-1 gastric epithelial cells (normal cell line), GES-1 normal cells, MTT, 48 h, read-out: IC50

SMILES	IC50 ([2]; Homo sapiens)	IC50 ([3]; Homo sapiens)	IC50 ([4]; Homo sapiens)	IC50 ([7]; Homo sapiens)	IC50 ([8]; Homo sapiens, MCF7)	IC50 at 48 h [1]	melting point	anticancer activity (in words) [10]	IC50 at 48 h [5]	further results
CC(C)(O)CCC[C@@](C)(O)C1CC[C@]2(C)C1[C@H](O)CC1[C@@]3(C)CC[C@H](O)C(C)(C)C3CC[C@]12C (stereo partly drawn) [AD-2, 25-hydroxyprotopanaxadiol, reference compound]	48.6 ± 1.24 µM	34.3 ± 0.87 µM	18.7 ± 0.28 µM	44.2 ± 1.06 µM	49.6 ± 1.35 µM	–	–	–	–	IC50 at 48 h [1, 15]: > 100 µM; IC50 at 48 h [5, 16]: > 100 µM; antitumor activity compared with ginsenoside-Rg3 [6]: 5–15 fold
CC(=O)Oc1ccccc1C(=O)OC1CCC2(C)C(CCC3(C)C2CC(O)C2C(C4(C)CCCC(C)(C)O4)CCC23C)C1(C)C (stereo not drawn) [Compound 3b]	20.9 ± 0.54 µM	14.37 ± 0.04 µM	10.7 ± 0.12 µM	11.2 ± 0.16 µM	2.56 ± 0.09 µM	> 100 µM	243 to 245 °C	strong anticancer activity	> 100 µM	subG1 phase after treatment [9]: 7.58%; subG1 phase after treatment [11]: 56.95%
COC(C)(C)CCCC(C)(O)C1CCC2(C)C1C(OC(=O)c1ccccc1O)CC1C3(C)CCC(O)C(C)(C)C3CCC12C [Compound 3a, 20(R)-25-Methoxydammarane-3β,20-diol-12β-yl-2′-hydroxybenzoate]	9.78 ± 0.03 µM	13 ± 0.25 µM	10.5 ± 0.25 µM	15.1 ± 0.24 µM	5.34 ± 0.04 µM	> 100 µM	235 to 237 °C	strong anticancer activity	> 100 µM	–
CC(C)=CCC[C@](C)(O)[C@H]1CC[C@]2(C)[C@@H]1[C@H](O)C[C@@H]1[C@@]3(C)CC[C@H](O[C@@H]4O[C@H](CO)[C@@H](O)[C@H](O)[C@H]4O[C@@H]4O[C@H](CO)[C@@H](O)[C@H](O)[C@H]4O)C(C)(C)[C@@H]3CC[C@]12C [Rg3, Ginsenoside-Rg3, reference compound]	–	–	–	–	–	–	–	–	–	IC50 [12]: > 100 µM; IC50 [2]: 85.2 ± 1.59 µM; IC50 [3]: > 100 µM; IC50 [4]: > 100 µM; IC50 [13]: > 100 µM; IC50 [7]: > 100 µM; IC50 [8]: 92.1 ± 2.36 µM
CC(C)(CCCC(C)(O)C1CCC2(C)C1C(OC(=O)c1ccccc1O)CC1C3(C)CCC(OC(=O)c4ccccc4O)C(C)(C)C3CCC12C)OC(=O)c1ccccc1O [Compound 1a, 20(R)-Dammarane-20-hydroxy-3β,12β,25-tri-yl-2′-hydroxybenzoate]	3.23 ± 0.34 µM	15.69 ± 0.1 µM	9.23 ± 0.08 µM	11.8 ± 0.21 µM	20.31 ± 0.11 µM	> 100 µM	192 to 194 °C	strong anticancer activity	> 100 µM	–
CC(=O)Oc1ccccc1C(=O)OC1CCC2(C)C(CCC3(C)C2CC(O)C2C(C(C)(O)CCCC(C)(C)O)CCC23C)C1(C)C (stereo not drawn) [Compound 8b]	10 ± 0.53 µM	6.12 ± 0.1 µM	13.25 ± 0.05 µM	10.2 ± 0.29 µM	14.7 ± 0.24 µM	> 100 µM	254 to 256 °C	strong anticancer activity	> 100 µM	–
CC(C)(O)CCCC(C)(O)C1CCC2(C)C1C(OC(=O)c1ccccc1O)CC1C3(C)CCC(OC(=O)c4ccccc4O)C(C)(C)C3CCC12C [Compound 7a, 20(R)-Dammarane-20, 25-diol-3β, 12β-di-yl-2′-hydroxybenzoate]	35.2 ± 1.24 µM	8.52 ± 0.15 µM	22.7 ± 0.46 µM	70.6 ± 2.12 µM	29.1 ± 0.69 µM	> 100 µM	197 to 199 °C	strong anticancer activity	> 100 µM	–
COC(C)(C)CCC[C@@](C)(O)C1CC[C@]2(C)C1[C@H](O)CC1[C@@]3(C)CC[C@H](O)C(C)(C)C3CC[C@]12C (stereo partly drawn) [AD-1, 25-methoxyprotopanaxadiol, reference compound]	12.99 ± 0.06 µM	34.32 ± 0.31 µM	16.6 ± 0.25 µM	16.6 ± 0.45 µM	7.34 ± 0.19 µM	–	–	–	–	IC50 at 48 h [1, 15]: > 100 µM; MCF-7 cell migration (wound distance) [14]: inhibited the migration of MCF-7 cells; IC50 at 48 h [5, 16]: > 100 µM; subG1 phase after treatment [11]: 38.45%; antitumor activity compared with ginsenoside-Rg3 [6]: 5–15 fold
